Tests used:
Test in all cases: Kinase selectivity profiling
[1] = target: ROCK1 (Homo sapiens, UniProt Q13464)
[2] = target: EPHB2 (Homo sapiens, UniProt P29323)
[3] = target: HIPK3 (Homo sapiens, UniProt Q9H422)
[4] = target: IRR (Homo sapiens, UniProt P14616)
[5] = target: EPHA4 (Homo sapiens, UniProt P54764)
[6] = target: IKK-alpha(CHUK) (Homo sapiens, UniProt O15111)
[7] = target: EPHA1 (Homo sapiens, UniProt P21709)
[8] = target: MAP3K3 (Homo sapiens, UniProt Q99759)
[9] = target: GSK3α (Homo sapiens, UniProt P49840)
GSK3α, sequence (P49840 whole entry): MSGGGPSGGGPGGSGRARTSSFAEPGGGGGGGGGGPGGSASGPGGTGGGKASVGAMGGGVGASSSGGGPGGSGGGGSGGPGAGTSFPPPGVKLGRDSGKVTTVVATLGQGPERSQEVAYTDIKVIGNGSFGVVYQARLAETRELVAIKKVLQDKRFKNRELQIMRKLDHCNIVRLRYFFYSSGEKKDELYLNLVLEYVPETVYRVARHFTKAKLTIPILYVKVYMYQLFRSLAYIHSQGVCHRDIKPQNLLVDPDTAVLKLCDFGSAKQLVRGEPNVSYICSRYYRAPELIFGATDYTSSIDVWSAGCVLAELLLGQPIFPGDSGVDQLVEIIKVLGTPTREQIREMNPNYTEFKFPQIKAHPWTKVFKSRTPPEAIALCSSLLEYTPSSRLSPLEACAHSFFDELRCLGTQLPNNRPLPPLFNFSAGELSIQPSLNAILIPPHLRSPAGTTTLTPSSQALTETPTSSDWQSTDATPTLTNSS

[10] = target: DYRK1A (Homo sapiens, UniProt Q13627)
[11] = target: BRK (Homo sapiens, UniProt Q13882)
[12] = target: KDR (VEGFR2) (Homo sapiens, UniProt P35968)
[13] = target: AurA (Homo sapiens, UniProt O14965)
[14] = target: CDK16/CycY (Homo sapiens, UniProt Q00536)
[15] = target: PIK3CD/PIK3R1 (Homo sapiens, UniProt O00329)
[16] = target: CLK3 (Homo sapiens, UniProt P49761)
[17] = target: DCAMKL2 (Homo sapiens, UniProt Q8N568)
[18] = target: TYRO3 (Homo sapiens, UniProt Q06418)
[19] = target: DCAMKL1 (Homo sapiens, UniProt O15075)
[20] = target: CDK5/p25NCK (Homo sapiens, UniProt Q00535)
[21] = target: DDR1 (Homo sapiens, UniProt Q08345)
[22] = target: FLT3 (Homo sapiens, UniProt P36888)
[23] = target: INSR (Homo sapiens, UniProt P06213)
INSR, sequence (P06213 28-1382): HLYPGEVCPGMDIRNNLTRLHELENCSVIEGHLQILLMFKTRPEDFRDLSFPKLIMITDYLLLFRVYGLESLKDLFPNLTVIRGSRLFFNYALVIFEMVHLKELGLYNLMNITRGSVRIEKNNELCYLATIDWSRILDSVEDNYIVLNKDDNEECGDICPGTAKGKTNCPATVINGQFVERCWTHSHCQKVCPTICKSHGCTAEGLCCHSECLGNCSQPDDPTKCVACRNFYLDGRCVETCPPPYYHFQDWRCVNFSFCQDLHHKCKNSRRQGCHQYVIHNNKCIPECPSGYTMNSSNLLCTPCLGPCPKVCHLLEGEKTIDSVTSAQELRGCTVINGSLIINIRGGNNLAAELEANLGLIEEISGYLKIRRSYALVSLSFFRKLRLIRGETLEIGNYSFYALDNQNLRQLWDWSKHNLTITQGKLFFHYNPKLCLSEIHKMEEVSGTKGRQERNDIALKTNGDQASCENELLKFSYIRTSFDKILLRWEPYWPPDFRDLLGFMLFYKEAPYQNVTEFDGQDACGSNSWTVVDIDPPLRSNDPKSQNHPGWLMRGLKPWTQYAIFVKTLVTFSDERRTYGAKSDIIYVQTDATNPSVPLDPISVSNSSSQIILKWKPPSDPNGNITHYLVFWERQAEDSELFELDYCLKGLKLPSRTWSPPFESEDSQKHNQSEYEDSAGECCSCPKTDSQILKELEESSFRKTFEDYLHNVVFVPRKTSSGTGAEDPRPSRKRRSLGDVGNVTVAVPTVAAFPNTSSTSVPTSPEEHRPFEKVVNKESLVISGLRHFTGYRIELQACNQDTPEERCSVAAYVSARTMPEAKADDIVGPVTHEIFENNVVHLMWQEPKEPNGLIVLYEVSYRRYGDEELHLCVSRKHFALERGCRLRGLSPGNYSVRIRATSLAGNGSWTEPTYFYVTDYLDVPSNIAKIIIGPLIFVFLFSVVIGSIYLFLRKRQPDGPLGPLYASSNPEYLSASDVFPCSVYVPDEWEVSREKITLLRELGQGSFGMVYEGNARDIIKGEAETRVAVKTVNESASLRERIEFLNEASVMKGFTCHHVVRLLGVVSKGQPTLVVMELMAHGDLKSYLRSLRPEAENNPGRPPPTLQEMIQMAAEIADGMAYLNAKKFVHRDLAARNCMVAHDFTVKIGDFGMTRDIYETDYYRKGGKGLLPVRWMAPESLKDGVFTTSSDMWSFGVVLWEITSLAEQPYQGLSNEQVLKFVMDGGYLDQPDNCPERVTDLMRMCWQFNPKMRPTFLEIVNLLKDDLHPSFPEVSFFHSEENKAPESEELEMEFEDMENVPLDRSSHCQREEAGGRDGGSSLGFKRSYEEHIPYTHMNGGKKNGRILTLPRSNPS

[24] = target: PLK3 (Homo sapiens, UniProt Q9H4B4)
[25] = target: PDGFRa (Homo sapiens, UniProt P16234)
[26] = target: EPHA6 (Homo sapiens, UniProt Q9UF33)
EPHA6, sequence (Q9UF33 23-1036): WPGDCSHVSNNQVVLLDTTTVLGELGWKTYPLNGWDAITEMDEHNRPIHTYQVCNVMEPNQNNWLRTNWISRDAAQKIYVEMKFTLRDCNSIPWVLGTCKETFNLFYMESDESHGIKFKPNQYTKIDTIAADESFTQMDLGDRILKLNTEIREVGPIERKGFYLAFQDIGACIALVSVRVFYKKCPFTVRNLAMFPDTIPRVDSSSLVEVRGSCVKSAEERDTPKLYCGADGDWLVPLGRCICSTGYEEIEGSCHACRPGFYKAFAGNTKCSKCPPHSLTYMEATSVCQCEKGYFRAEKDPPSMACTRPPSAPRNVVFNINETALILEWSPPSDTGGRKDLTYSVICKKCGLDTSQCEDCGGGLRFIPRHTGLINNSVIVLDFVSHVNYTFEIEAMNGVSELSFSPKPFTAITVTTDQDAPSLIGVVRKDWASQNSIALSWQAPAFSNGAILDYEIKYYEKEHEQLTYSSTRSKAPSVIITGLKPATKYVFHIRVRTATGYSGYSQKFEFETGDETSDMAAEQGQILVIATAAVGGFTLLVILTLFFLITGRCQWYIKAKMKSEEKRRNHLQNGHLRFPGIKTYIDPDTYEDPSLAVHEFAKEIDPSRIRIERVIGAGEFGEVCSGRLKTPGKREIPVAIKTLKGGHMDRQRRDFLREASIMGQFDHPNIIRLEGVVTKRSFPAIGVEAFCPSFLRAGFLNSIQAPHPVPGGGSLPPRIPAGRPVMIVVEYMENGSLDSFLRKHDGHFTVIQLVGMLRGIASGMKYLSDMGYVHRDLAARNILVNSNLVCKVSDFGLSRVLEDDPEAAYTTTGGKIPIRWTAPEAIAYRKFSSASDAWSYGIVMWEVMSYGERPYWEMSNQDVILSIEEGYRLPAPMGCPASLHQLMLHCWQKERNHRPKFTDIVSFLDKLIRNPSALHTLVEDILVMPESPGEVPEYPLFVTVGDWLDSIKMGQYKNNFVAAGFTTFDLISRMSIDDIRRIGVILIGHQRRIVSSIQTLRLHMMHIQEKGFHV

[27] = target: ROS1 (Homo sapiens, UniProt P08922)
[28] = target: EPHA5 (Homo sapiens, UniProt P54756)
[29] = target: AurC (Homo sapiens, UniProt Q9UQB9)
AurC, sequence (Q9UQB9 whole entry): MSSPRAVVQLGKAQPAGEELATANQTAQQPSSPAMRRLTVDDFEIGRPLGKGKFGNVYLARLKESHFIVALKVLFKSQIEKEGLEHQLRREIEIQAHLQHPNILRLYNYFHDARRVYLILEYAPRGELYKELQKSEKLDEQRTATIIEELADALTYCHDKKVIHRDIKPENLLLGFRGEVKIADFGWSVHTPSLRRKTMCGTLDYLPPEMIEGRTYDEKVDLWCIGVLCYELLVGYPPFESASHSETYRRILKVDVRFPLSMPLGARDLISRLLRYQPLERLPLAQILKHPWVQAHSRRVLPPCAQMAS

[30] = target: TGFβR2 (Homo sapiens, UniProt P37173)
[31] = target: JNK3 (Homo sapiens, UniProt P53779)
[32] = target: SGK (Homo sapiens, UniProt O00141)
[33] = target: HER2 (Homo sapiens, UniProt P04626)
[34] = target: Erk5 (Homo sapiens, UniProt Q13164)
[35] = target: FLT1 (VEGFR1) (Homo sapiens, UniProt P17948)
[36] = target: CHK1(CHEK1) (Homo sapiens, UniProt O14757)
[37] = target: CSK (Homo sapiens, UniProt P41240)
[38] = target: CDK7/CycH/MAT1 (Homo sapiens, UniProt P50613)
[39] = target: p38γ (Homo sapiens, UniProt P53778)
p38γ, sequence (P53778 whole entry): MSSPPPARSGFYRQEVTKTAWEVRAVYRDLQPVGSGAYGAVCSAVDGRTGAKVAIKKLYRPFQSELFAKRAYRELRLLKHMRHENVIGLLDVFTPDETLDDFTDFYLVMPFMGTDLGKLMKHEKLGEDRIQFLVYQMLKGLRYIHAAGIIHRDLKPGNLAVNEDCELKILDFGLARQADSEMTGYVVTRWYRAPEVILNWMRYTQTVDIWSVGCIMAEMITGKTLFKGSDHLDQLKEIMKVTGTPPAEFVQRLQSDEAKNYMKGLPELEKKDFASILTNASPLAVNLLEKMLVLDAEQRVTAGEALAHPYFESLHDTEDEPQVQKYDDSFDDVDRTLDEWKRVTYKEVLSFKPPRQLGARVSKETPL

[40] = target: KIT (Homo sapiens, UniProt P10721)
KIT, sequence (P10721 26-976): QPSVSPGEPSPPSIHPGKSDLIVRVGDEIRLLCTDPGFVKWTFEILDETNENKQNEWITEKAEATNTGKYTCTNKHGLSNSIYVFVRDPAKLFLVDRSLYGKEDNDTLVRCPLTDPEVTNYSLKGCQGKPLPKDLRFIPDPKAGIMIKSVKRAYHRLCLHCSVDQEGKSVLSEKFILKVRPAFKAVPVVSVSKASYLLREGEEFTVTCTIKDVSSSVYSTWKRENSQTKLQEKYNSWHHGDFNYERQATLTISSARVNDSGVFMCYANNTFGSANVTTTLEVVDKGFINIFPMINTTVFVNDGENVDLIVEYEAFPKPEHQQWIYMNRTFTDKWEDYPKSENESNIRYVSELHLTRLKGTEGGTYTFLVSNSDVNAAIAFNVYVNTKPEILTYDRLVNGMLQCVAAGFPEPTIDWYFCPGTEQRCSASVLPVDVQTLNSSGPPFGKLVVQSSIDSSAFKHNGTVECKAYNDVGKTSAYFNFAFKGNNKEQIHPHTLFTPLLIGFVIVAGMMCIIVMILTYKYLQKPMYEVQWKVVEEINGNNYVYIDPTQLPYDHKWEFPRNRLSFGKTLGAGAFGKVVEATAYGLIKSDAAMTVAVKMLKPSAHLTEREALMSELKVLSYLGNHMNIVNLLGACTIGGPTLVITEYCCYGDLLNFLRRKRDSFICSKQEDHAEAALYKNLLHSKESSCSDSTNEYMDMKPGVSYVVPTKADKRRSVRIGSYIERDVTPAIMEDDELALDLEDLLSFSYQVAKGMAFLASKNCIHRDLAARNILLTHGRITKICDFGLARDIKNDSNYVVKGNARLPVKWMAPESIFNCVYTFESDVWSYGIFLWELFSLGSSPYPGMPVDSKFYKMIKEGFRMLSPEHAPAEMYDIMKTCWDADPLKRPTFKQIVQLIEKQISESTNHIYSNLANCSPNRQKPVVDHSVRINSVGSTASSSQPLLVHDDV

[41] = target: PIM3 (Homo sapiens, UniProt Q86V86)

Compound: C=CC(=O)Nc1ccccc1Nc1ncc2c(n1)N(CCCN1CCN(C(=O)C=C)CC1)C(=O)N(c1cc(OC)cc(OC)c1)C2 [CXF-009]
- inhibition at 1 µM [1]: 5.09%
- inhibition at 1 µM [2]: -3.12%
- inhibition at 1 µM [3]: -4.6%
- inhibition at 1 µM [4]: -3.5%
- inhibition at 1 µM [5]: -6.83%
- inhibition at 1 µM [6]: 2.35%
- inhibition at 1 µM [7]: 2.15%
- inhibition at 1 µM [8]: -1.62%
- inhibition at 1 µM [9]: 5.79%
- inhibition at 1 µM [10]: -1.23%
- inhibition at 1 µM [11]: 1.91%
- inhibition at 1 µM [12]: -5.37%
- inhibition at 1 µM [13]: 15.4%
- inhibition at 1 µM [14]: -7.9%
- inhibition at 1 µM [15]: -44.4%
- inhibition at 1 µM [16]: -0.52%
- inhibition at 1 µM [17]: 18.9%
- inhibition at 1 µM [18]: 0.8%
- inhibition at 1 µM [19]: 13.4%
- inhibition at 1 µM [20]: -5.5%
- inhibition at 1 µM [21]: -3.41%
- inhibition at 1 µM [22]: -1.11%
- inhibition at 1 µM [23]: 0.8%
- inhibition at 1 µM [24]: -1.12%
- inhibition at 1 µM [25]: -0.91%
- inhibition at 1 µM [26]: 5.28%
- inhibition at 1 µM [27]: -0.51%
- inhibition at 1 µM [28]: 8.67%
- inhibition at 1 µM [29]: 2.77%
- inhibition at 1 µM [30]: -10.4%
- inhibition at 1 µM [31]: -3.67%
- inhibition at 1 µM [32]: 2.9%
- inhibition at 1 µM [33]: 10.7%
- inhibition at 1 µM [34]: 14%
- inhibition at 1 µM [35]: 5.91%
- inhibition at 1 µM [36]: 1.53%
- inhibition at 1 µM [37]: 3.29%
- inhibition at 1 µM [38]: 1.27%
- inhibition at 1 µM [39]: 0.13%
- inhibition at 1 µM [40]: -14.3%
- inhibition at 1 µM [41]: 17.5%
